# Results as given in PMC9501232, “Novel 4-Azapregnene Derivatives as Potential Anticancer Agents: Synthesis, Antiproliferative Activity and Molecular Docking Studies” (Molecules, 2022).
# Columns and labels:
# [1] = tested on: NHDF cells (Normal Human Dermal Fibroblasts); assay: MTT cell proliferation assay, NHDF; format: cell-based; conditions: 72 h
# Experimental: Cell lines, namely LNCaP, PC-3, T47-D and NHDF were obtained from American Type Culture Collection (ATCC; Manassas, VA, USA) and cultured in 75 cm^2 culture flasks at 37 °C in a humidified air incubator with 5% CO2. LNCaP, PC-3 and T47-D cells, which were used in passages 20th to 27th, 25th to 29th and 10th to 15th, respectively, were cultured in RPMI 1640 medium (Sigma-Aldrich, Inc., St. Louis, MO, USA) with 10% fetal bovine serum (FBS; Sigma-Aldrich, Inc. St. Louis, MO, USA) and 1% of the antibiotic mixture of 10,000 IU/mL penicillin G and […] of streptomycin (Sp, Sigma-Aldrich, Inc. St. Louis, MO, USA). Finally, NHDF cells (Normal Human Dermal Fibroblasts) were cultured in RPMI 1640 medium supplemented with 10% FBS, 2 mM L-glutamine, 10 mM HEPES, 1 mM sodium pyruvate and 1% of an antibiotic/antimycotic mixture (10,000 U/mL penicillin G, 100 mg/mL streptomycin and 25 µg/mL amphotericin B) (Ab; Sigma-Aldrich, Inc. St. Louis, MO, USA), and these cells were used in passages 10 to 12. For all cell types, the medium was renewed every 2–3 days until cells reach nearly the confluence state. Then, they were detached gently by trypsinization (trypsin-EDTA solution: 0.125 g/L of trypsin and 0.02 g/L of EDTA).
# All the stock solutions were prepared by dissolving compounds in dimethyl sulfoxide (DMSO; Sigma-Aldrich, Inc., St. Louis, MO, USA) at 10 mM and stored at 4 °C. From these solutions, the several diluted compounds solutions in different concentrations were freshly prepared in a complete culture medium before each experiment.
# As previously referred, cells were trypsinized after reaching a near confluence state and counted by the trypan blue exclusion assay in a Neubauer chamber. Then, 100 µL of cell suspension/well with an initial density of 2 × 10^4 cells/mL were seeded in 96-well culture plates (Nunc, Apogent, Denmark) and left to adhere for 48 h. After cells adherence, the medium was replaced by the distinct solutions of the compounds in the study (30 µM for preliminary studies and 0.01, 0.1, 1, 10, 50 and 100 µM for concentration–response studies) in the appropriate medium for approximately 72 h. 5-FU and finasteride were used as positive controls and untreated cells were used as the negative control. Each experiment was performed in quadruplicate and independently performed at least two times. The in vitro antiproliferative effects were evaluated by the MTT assay (Sigma-Aldrich, Inc. St. Louis, USA). After the incubation period, the medium was removed and 100 µL of phosphate buffer saline (NaCl 137 mM, KCl 2.7 mM, Na2HPO4 10 mM and KH2PO4 1.8 mM in deionized water and pH adjusted to 7.4) were used to wash the cells. Then, 100 µL of the MTT solution (5 mg/mL) was prepared in the appropriate serum-free medium and was added to each well, followed by incubation for 4 h at 37 °C. Hereafter, the MTT containing medium was removed and the formazan crystals were dissolved in DMSO. Then the absorbance was measured at 570 nm using a microplate spectrophotometer BIO-RAD xMarkTM. Cell viability values were expressed as percentages relative to the absorbance determined in the cells used as negative controls.
# The data are expressed as a mean ± standard deviation (SD) and differences between groups were considered statistically significant when p < 0.05. The IC50 values were determined through sigmoidal fitting analysis with variable slope and considering a 95% confidence level. All data shown are representative of at least two independent experiments.
# LNCaP cells = assay: Microscopic cell morphology observation; format: cell-based, human; conditions: 24 and 72 h of treatment
# Experimental: In our previous work, 16E-arylidene-4-azaandrost-5-ene derivatives were synthesized, their antiproliferative effects were evaluated and further studies were performed with the most promising steroid in LNCaP cells. Due to the similarity of 16E-arylidene-4-azaandrostenes and these novel 21E-arylidene-4-azapregnene derivatives, identical studies in this cell line were performed, namely a flow cytometry assay and microscopic cell morphology observation. To assess the viability of LNCaP cells when exposed to steroid 3g, a flow cytometry assay after PI staining was performed. Cells were treated with 3g and 5-FU during 24 and 72 h, and then a microscopic cell observation was performed to assess the possible morphological alterations and cell density changes triggered by incubation with 3g and compare with controls (Figure 6).
# Similar to the previous study, the analysis of cell viability was accomplished by flow cytometry after staining dead cells with propidium iodide (PI; Invitrogen, Carlsbad, USA). Succinctly, 1 mL of a cell suspension was seeded in 12-well culture plates (initial cell density of 5 × 10^4 cells/mL of LNCaP cells for 24 h assay and 2 × 10^4 cells/mL of the same cell line for 72 h assay) in a complete culture medium. […] The percentages of each region were calculated for a total of R1 + R2 + R3. […]
smiles,measurement,setting,value
"C[C@]12CC[C@H]3[C@@H](CC=C4NC(=O)CC[C@@]43C)[C@@H]1CC[C@@H]2C(=O)/C=C/c1cccnc1 [Compound 3g, 21E-[(Pyridin-3-yl)methylidene]-4-azapregn-5-ene-3,20-dione]","MTT screening, cell proliferation","[1]; 30 µM, average ± SD",23.8 ± 3.2 percentage of negative control
same,IC50,"[1]; Homo sapiens, MTT",3.09 µM
same,Cell morphology and cell density,LNCaP cells,"detached, forming clusters and presenting a round form"
